Test results published in patent publication US6258790A, “Antisense modulation of integrin α4 expression” (Isis Pharmaceuticals, Inc., priority 1999, dated 2001).

Tests used:
[1] = system: murine integrin α4; experiment: Antisense inhibition of murine integrin α4 protein expression in IC-21 macrophage cells (flow cytometry, CD49d-PE); format: cell-based, mouse; details: for % Control / % Inhib.: Table 16
Summary of the method: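 Murine IC-21 macrophages were transfected with 2'-MOE/deoxy chimeric oligonucleotides (5-methylcytosines) at 0.2-50 nM or 0.3, 1, 3, 10, 30 nM with 3 ug/ml LIPOFECTIN for 4 h. After 24 h, cells were harvested and integrin α4 was measured by flow cytometry with 2 ug/ml CD49d-PE (rat IgG2B control). Triplicate wells were used.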

[2] = system: leukocyte trafficking into the central nervous system of EAE mice; experiment: Reduction of leukocyte trafficking into the central nervous system of EAE mice (immunostaining of sections); format: in vivo, mouse (CSJLF1)
Experimental: The pieces were embedded in O.C.T. tissue freezing medium (Ted Pella Inc., Redding, Calif.) on dry ice and methylbutane. Four-micron frozen sections were cut and air dried overnight. The sections were fixed for three minutes in ice-cold acetone and then placed on a Dako Autostainer (Dako Corporation, Carpinteria, Calif.) and treated in the following steps: 5 minutes in 0.03% H2 O2, 5 minutes in 5% donkey serum diluted in PBS, 45 minutes in appropriately diluted primary antibody, 30 minutes in horseradish peroxidase-labeled donkey anti-rat secondary antibody (Jackson Laboratory, Bar Harbor, Me.). Sections were rinsed between treatments with PBS. All the antibodies used were rat anti-mouse from PharMingen (San Diego, Calif.), except BM-8, which was from Bachem Bioscience Inc. (King of Prussia, Pa.). The immunostaining was developed with DAB (Dako Corporation) and counterstained with hematoxylin.

[3] = system: human integrin α4 mRNA; experiment: Integrin α4 mRNA levels in A375 melanoma cells by real-time quantitative PCR; format: cell-based; details: 24 hours, electroporation
Experimental: Quantitation of integrin α4 mRNA levels was performed by real-time quantitative PCR using the ABI PRISM™ 7700 Sequence Detection System (PE-Applied Biosystems, Foster City, Calif.) according to manufacturer's instructions. This is a closed-tube, non-gel-based, fluorescence detection system which allows high-throughput quantitation of polymerase chain reaction (PCR) products in real-time. As opposed to standard PCR, in which amplification products are quantitated after the PCR is completed, products in real-time quantitative PCR are quantitated as they accumulate. This is accomplished by including in the PCR reaction an oligonucleotide probe that anneals specifically between the forward and reverse PCR primers, and contains two fluorescent dyes. A reporter dye (e.g., JOE or FAM, obtained from either Operon Technologies Inc., Alameda, Calif. or PE-Applied Biosystems, Foster City, Calif.) is attached to the 5' end of the probe and a quencher dye (e.g., TAMRA, obtained from either Operon Technologies Inc., Alameda, Calif. or PE-Applied Biosystems, Foster City, Calif.) is attached to the 3' end of the probe. When the probe and dyes are intact, reporter dye emission is quenched by the proximity of the 3' quencher dye. During amplification, annealing of the probe to the target sequence creates a substrate that can be cleaved by the 5'-exonuclease activity of Taq polymerase. […] With each cycle, additional reporter dye molecules are cleaved from their respective probes, and the fluorescence intensity is monitored at regular intervals by laser optics built into the ABI PRISM™ 7700 Sequence Detection System. In each assay, a series of parallel reactions containing serial dilutions of mRNA from untreated control samples generates a standard curve that is used to quantitate the percent inhibition after antisense oligonucleotide treatment of test samples.
PCR reagents were obtained from PE-Applied Biosystems, Foster City, Calif. RT-PCR reactions were carried out by adding 20 μL PCR cocktail (1×TAQMANT buffer A, 5.5 mM MgCl2, 300 μM each of dATP, dCTP and dGTP, 600 μM of dUTP, 400 nM each of forward primer and reverse primer (or 100 nM in the case of G3PDH), 100 nM probe, 20 Units RNAse inhibitor, 1.25 Units AMPLITAQ GOLD™, and 12.5 Units MuLV reverse transcriptase) to 5 μL (100 ng) total mRNA solution, purified using the RNEasy™ kit (Qiagen, Valencia Calif.). The RT reaction was carried out by incubation for 30 minutes at 48° C. Following a 10 minute incubation at 95° C. to activate the AMPLITAQ GOLD™, 40 cycles of a two-step PCR protocol were carried out: 95° C. for 15 seconds (denaturation) followed by 60° C. for 1.5 minutes (annealing/extension). Integrin α4 probes and primers were designed to hybridize to the human integrin α4 sequence, using published sequence information (GenBank accession number L12002), incorporated herein as SEQ ID NO:1).
For integrin α4 the PCR primers were: forward primer: GACACGCTGCGCCTCAT (SEQ ID NO: 94, hybridizes at position 319-335 of Genbank accession no. L12002) reverse primer: […] (SEQ ID NO: 95, hybridizes at position 391-412 of Genbank accession no. L12002) and the PCR probe was: FAM-[…]-TAMRA (probe is SEQ ID NO: 96; hybridizes at position 361-382 of Genbank accession no. L12002) where FAM (PE-Applied Biosystems, Foster City, Calif.) is the fluorescent reporter dye) and TAMRA (PE-Applied Biosystems, Foster City, Calif.) is the quencher dye. […]

Substance | reduction of integrin α4 expression ([1]; Example 14) | % Control ([1]; 0.3 nM) [%] | % Inhib. ([1]; 0.3 nM) [%] | % Control ([1]; 1 nM) [%] | % Inhib. ([1]; 1 nM) [%] | % Control ([1]; 3 nM) [%] | % Inhib. ([1]; 3 nM) [%] | % Control ([1]; 10 nM) [%] | % Inhib. ([1]; 10 nM) [%] | leukocyte trafficking into the spinal cords and brains ([2]; 1 mg/kg) | reduction of leukocyte influx into the central nervous system, 1.0 vs 0.1 mg/kg ([2]; EAE experiment 4) | CD4+T cells in the central nervous system ([2]; one experiment, EAE mice) | leukocyte trafficking as measured by expression of VLA-4, CD4, BM-8 and CD18 ([2]; preliminary experiments, 1 mg/kg) | reduction of integrin α4 mRNA levels compared to control ([3]; 0.3 μM) | reduction of integrin α4 mRNA levels compared to control ([3]; 1 μM) [%] | reduction of integrin α4 mRNA levels compared to control ([3]; 3 μM) [%] | reduction of integrin α4 mRNA levels compared to control ([3]; 10 μM) [%] | reduction of integrin α4 mRNA levels compared to control ([3]; 30 μM) [%]
17044 (CCGCAGCCATGCGCTCTTGG; phosphorothioate, 2'-MOE/deoxy, further chemistry not given here) [compound 17044] | reduce integrin α4 expression to below starting levels | 100 | 0 | 81 | 19 | 32 | 68 | -9 | > 100 | reduce leukocyte trafficking into the spinal cords and brains | dose-dependent effect with 1.0 mg/kg of 17044 causing a greater reduction of leukocyte influx into the central nervous system than did 0.1 mg/kg 17044 | virtually eliminated | significantly reduced | – | – | – | – | –
107248 (antisense CTGAGTCTGTTTTCCATTCT; chemistry not given here) [compound 107248] | – | – | – | – | – | – | – | – | – | – | – | – | – | approximately 23% | ~38 | ~70 | ~80 | ~85
